Experimental data reported in PMC5556109, “A combinatorial approach for the discovery of cytochrome P450 2D6 inhibitors from nature” (Scientific Reports, 2017).
Read-outs that look alike come from different tables or passages of the source.

Experiments:
CYP2D6 [1] = test: CYP2D6 inhibition of virtual hits already reported in the literature
Excerpt: the hits according to non-available CYP2D6 inhibition data, plant origin and availability. The

CYP2D6 [2] = settings: Supplementary Table S2, supplementary reference list, cited from earlier work; for IC50: read-out: Inhibitory potency IC50
CYP2D6 [3] = target: T1, CYP2D6 (Homo sapiens, UniProt P10635); test: in vitro; settings: recombinant enzyme, pH 7.4
T1 sequence (P10635 whole entry): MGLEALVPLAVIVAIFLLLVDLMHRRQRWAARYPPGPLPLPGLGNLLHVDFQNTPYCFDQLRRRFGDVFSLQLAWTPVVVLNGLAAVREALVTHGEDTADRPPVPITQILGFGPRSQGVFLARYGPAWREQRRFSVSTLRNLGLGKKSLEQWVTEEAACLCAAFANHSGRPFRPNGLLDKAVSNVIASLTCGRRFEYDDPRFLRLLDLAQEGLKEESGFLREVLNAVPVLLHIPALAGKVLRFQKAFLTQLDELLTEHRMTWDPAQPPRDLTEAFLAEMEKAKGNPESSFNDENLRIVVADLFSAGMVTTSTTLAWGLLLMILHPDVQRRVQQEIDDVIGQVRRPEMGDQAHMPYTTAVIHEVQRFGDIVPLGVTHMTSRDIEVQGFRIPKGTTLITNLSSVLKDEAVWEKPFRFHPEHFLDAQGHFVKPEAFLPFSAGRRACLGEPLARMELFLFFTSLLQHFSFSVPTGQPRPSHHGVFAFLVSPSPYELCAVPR
Experimental: (§1) Their CYP2D6 inhibitory potential was determined at a concentration of 100 µM in a final reaction volume of 50 µl. […] All compounds were dissolved in DMSO and the concentration thereof in the final reaction volume was 1%, according to the limitations indicated in the manufacturer’s protocol. […] To take into account the background luminescence, which may derive from a non-enzymatic conversion of ME-luciferin-EGE to luciferin, we included a ‘minus P450’ control that contained no CYP2D6 enzyme. In order to quantify CYP2D6 activity, we subtracted background values prior to calculating the percentage of total luminescence (% TL) obtained from the solvent control (set to 100%). Low % TL indicates low CYP2D6 activity.
(§2) In the three minus P450 control wells, 12.25 µl of the 4× reaction mixture was added. […] The plate was incubated for 10 minutes. The CYP2D6 enzyme reaction was initiated by the addition of 25 µl of 2× NADPH regeneration system (2.6 mM NADP^+, 6.6 mM glucose-6-phosphate, 6.6 mM MgCl2 and 0.8 U/ml glucose-6-phosphate dehydrogenase buffered in 0.1 mM sodium citrate at pH 5.5; Promega). After 45 minutes incubation, the enzyme reaction was stopped by the addition of 50 µl of the luciferin detection reagent, which contained also the esterase for the generation of the luminescence signal. The plate was incubated in the dark for 20 minutes in order to stabilize the signal measured by a Tecan infinite F200 PRO plate reader. […] The maximum allowed DMSO concentration in the final reaction mix was 1% according to the manufacturer’s protocol. The experiment was performed at room temperature and under prevention of excessive UV-light at minimum on two independent days (n = 2).
(§3) Concentration-dependent CYP2D6 inhibition assays were performed by preparing a 5-step dilution series of the 400 µM compound solutions. […] After this dilution step, 12.5 µl of each dilution was transferred to the assay plate. The assay was performed as described above. The DMSO concentration was kept constant for all concentrations with a maximum of 1%. The experiments were performed on three independent experimental days (n = 3).
(§4) Raw data obtained from Tecan infinite F200 PRO plate reader was processed by calculating total luminescence (% of untreated control) by applying the formula: raw data − (background luminescence) * 100/mean of negative control.

[4] = tested on: P450-Glo detection reaction (unspecific esterase and modified firefly-luciferase); test: P450-Glo detection reaction control (luciferin-EGE, esterase, luciferase, test compound, no CYP2D6)
Excerpt: (§5) This detection-reagent consists of i) a detergent that stops the CYP2D6 enzyme reaction, ii) an unspecific esterase that continuously releases luciferin and iii) a modified firefly-luciferase, thus a stable luminogenic signal is generated, which can be quantified by a luminometer (Fig. 1). The detection reaction is incorporated in the P450-Glo CYP2D6 inhibition assay. However, we implemented additional controls for unspecific interactions of the test compounds with the detection reaction. For this purpose, the previously established luminescence quenching control reaction reported by Modarai et al.[9] was adapted to our requirements with modifications for the use of larger sample volumes. In addition, Modarai et al. converted ME-luciferin-EGE to luciferin in the absence of a test compound and then evaluated the inhibition of the luciferase reaction.We conducted the control step by using pure luciferin-EGE, esterase, luciferase and a test compound in the absence of CYP2D6 (Supplementary Table S4).
(§6) The quantification of the P450-Glo detection reaction was performed by subtracting the background values prior to calculating the percentage of total luminescence (% TL) based on the total luminescence obtained from the solvent control (set to 100%).
(§7) We then added 12.5 µl 4× reaction mixture (5 µl 1.5 mM luciferin-EGE stock solution, 500 µl 1 M KPO4 buffer and 745 µl luciferase free water) to the wells. Finally, 25 µl of the 2× NADPH regeneration system was added. In order to initiate the detection reaction, 50 µl of the reconstituted luciferin detection reagent containing the esterase was added to the samples, positive and solvent control wells. This step was followed by 20 minutes incubation in the dark for signal stabilization. In the wells reserved for background luminescence, luciferase-free water was added. Measurements were performed on a Tecan infinite F200 PRO plate reader on two independent days (n = 2) at minimum.
as §4
(§8) A one-way ANOVA followed by Dunnett’s multiple comparisons test was performed. […] A p-value of < 0.05 was used to indicate significance.

CYP2D6 [5] = target: T1, CYP2D6; test: P450-Glo CYP2D6 inhibition assay (bioluminescence-based; pre-screen at 100 µM and IC50 determination); settings: for classification of CYP2D6 inhibition (actives / weak actives / inactives): ranked by IC50, inactives from pre-screen at 100 µM
Experimental: as §1, §2, §3, §4

CYP2D6 [6] = target: T1, CYP2D6; settings: recombinant enzyme
Experimental: as §1, §2, §3, §4

[7] = tested on: P450-Glo detection reaction (unspecific esterase and modified firefly-luciferase)
Excerpt: as §5, §6, §7, §4, §8

firefly-luciferase = settings: cited from earlier work
CYP2D6 [8] = tested on: CYP2D6; design: method as in earlier work; settings: ME-luciferin-EGE as CYP2D6 substrate; cited from earlier work
[9] = authors' classification of the literature value, Supplementary Table S2

SMILES: COC(=O)C1=CO[C@@H](C)[C@H]2CN3CCc4c([nH]c5ccccc45)[C@@H]3C[C@H]12 [Ajmalicine]
- Classification of literature CYP2D6 inhibition (CYP2D6 [1]; [9]): active
- IC50 (CYP2D6 [2]): 0.0023 µM

SMILES: C=C[C@H]1CN2CC[C@H]1C[C@H]2[C@H](O)c1ccnc2ccccc12 [Cinchonidine]
- Classification of literature CYP2D6 inhibition (CYP2D6 [1]; [9]): active
- IC50 (CYP2D6 [2]): 10 µM

SMILES: COC(=O)C1=CO[C@@H](C)[C@@H]2CN3CC[C@@]4(C(=O)Nc5ccccc54)[C@@H]3C[C@H]12 [Compound 2, Isopteropodine]
- inhibition at 100 µM (CYP2D6 [3]): 56.8%
- P450-Glo Detection Reaction MEAN Diff. (inhibition of the detection reaction) ([4]; 50 µM test compound, difference to DMSO 1% control): 7.57%
- P450-Glo Detection Reaction MEAN (total luminescence) ([4]; 50 µM test compound, no CYP2D6, DMSO control = 100): 92.43 % TL
- p < 0.05 (significant inhibition of the P450-Glo detection reaction) ([4]; 50 µM, one-way ANOVA, Dunnett's test vs DMSO control): Yes
- IC50 (CYP2D6 [5]): 89.1 µM
- total luminescence in CYP2D6 inhibition pre-screen (CYP2D6 [5]; 100 µM test compound, solvent control = 100%, low % TL = low CYP2D6 activity): 43.22 % TL
- classification of CYP2D6 inhibition (actives / weak actives / inactives) (CYP2D6 [5]): weak actives

SMILES: COc1ccc(Cc2nccc3cc(OC)c(OC)cc23)cc1OC [Compound 6, Papaverine]
- classification of CYP2D6 inhibition (actives / weak actives / inactives) (CYP2D6 [6]): actives (key: actives: those compounds were classified as active, which exhibited CYP2D6 IC50 values up to 10 µM; inactives showed less than 50 % total luminescence at a concentration of 100 µM)
- P450-Glo Detection Reaction MEAN (total luminescence) [7]: 82.48 % TL
- IC50 (CYP2D6 [5]): 7.02 µM

SMILES: CN1Cc2c(ccc3c2OCO3)[C@@H]2[C@H]1c1cc3c(cc1C[C@@H]2O)OCO3 [Compound 21, (+)-Chelidonine]
- classification of CYP2D6 inhibition (actives / weak actives / inactives) (CYP2D6 [6]): actives (key: actives: those compounds were classified as active, which exhibited CYP2D6 IC50 values up to 10 µM; inactives showed less than 50 % total luminescence at a concentration of 100 µM)
- total luminescence in CYP2D6 inhibition pre-screen (CYP2D6 [6]; 100 µM): 0.45 % TL
- P450-Glo Detection Reaction MEAN (total luminescence) [7]: 98.77 % TL
- inhibition at 100 µM (CYP2D6 [3]): 99.5%
- IC50 (CYP2D6 [5]): 0.0225 µM

SMILES: Oc1ccc(/C=C/c2cc(O)cc(O)c2)cc1 [Compound 24, Resveratrol, reference compound]
- inhibition of firefly-luciferase (firefly-luciferase): lower micromolar range
- classification of CYP2D6 inhibition (actives / weak actives / inactives) (CYP2D6 [5]): weak actives

SMILES: COc1cc2c(cc1OC)[C@H]1[C@@H](C)c3ccc(OC)c(OC)c3CN1CC2 [Corydaline]
- Classification of literature CYP2D6 inhibition (CYP2D6 [1]; [9]): weak
- Classification of literature CYP2D6 inhibition (CYP2D6 [1]; w/o preincubation, authors' classification of the literature value, Supplementary Table S2): inactive
- IC50 (CYP2D6 [2]; w/ preincubation): 64.5 ± 9.8 µM
- IC50 (CYP2D6 [2]; w/o preincubation): 116 ± 7.6 µM

SMILES: COc1cc2c(cc1O)CCN1Cc3c(ccc(OC)c3OC)C[C@H]21 [Corypalmine]
- Classification of literature CYP2D6 inhibition (CYP2D6 [1]; [9]): active
- IC50 (CYP2D6 [2]): 1 to 10 µM

SMILES: COc1cc2c(cc1OC)C(=O)Cc1ccc3c(c1CN(C)CC2)OCO3 [Cryptopine]
- Classification of literature CYP2D6 inhibition (CYP2D6 [1]; [9]): unclear
- Inhibitory potency (CYP2D6 [2]): stated as inhibitor

SMILES: COc1ccc(CC2c3cc(OC)c(OC)cc3CCN2C)cc1OC (stereo not drawn) [Laudanosine]
- Classification of literature CYP2D6 inhibition (CYP2D6 [1]; [9]): unclear
- Inhibitory potency (CYP2D6 [2]): stated as inhibitor

SMILES: COc1ccc2nc(C3=NC(C(=O)OCCO)CS3)sc2c1 (stereo not drawn) [ME-luciferin-EGE, methoxy-luciferin-ethylene glycol ester]
- turnover number (kcat) (CYP2D6 [8]): 7.1 min⁻¹

SMILES: COc1ccc2c(c1OC)C(=O)O[C@@H]2[C@H]1c2c(cc3c(c2OC)OCO3)CCN1C [Noscapine]
- Classification of literature CYP2D6 inhibition (CYP2D6 [1]; [9]): inactive
- Inhibitory potency (IC50/Ki not specified) (CYP2D6 [2]): > 100 µM

SMILES: COc1cc2c(cc1OC)-c1cc3ccc(OC)c(OC)c3c[n+]1CC2 [Palmatine chloride]
- Classification of literature CYP2D6 inhibition (CYP2D6 [1]): weak
- Inhibitory potency (IC50/Ki not specified) (CYP2D6 [2]): 92.6 µM

SMILES: CN1CCc2cc3c(cc2C(=O)Cc2ccc4c(c2C1)OCO4)OCO3 [Protopine]
- Classification of literature CYP2D6 inhibition (CYP2D6 [1]): active
- Ki (CYP2D6 [2]; read-out: Inhibitory potency Ki): 78 nM

SMILES: COC1=C[C@@H]2[C@@H]3Cc4ccc(OC)c(O)c4[C@]2(CCN3C)CC1=O [Sinomenine]
- Classification of literature CYP2D6 inhibition (CYP2D6 [1]; [9]): inactive
- Inhibitory potency (CYP2D6 [2]; at 50 µM): no inhibition

SMILES: COc1cc2c(cc1OC)[C@@H]1Cc3ccc(OC)c(OC)c3CN1CC2 [Tetrahydropalmatine]
- Classification of literature CYP2D6 inhibition (CYP2D6 [1]; [9]): active
- IC50 (CYP2D6 [2]): 3.04 ± 0.26 µM

SMILES: CCC12C=CCN3CC[C@@]4(c5ccc(OC)cc5N(C)[C@H]4[C@@](O)(C(=O)OC)[C@@H]1OC(C)=O)[C@@H]32 (stereo partly drawn) [Vindoline]
- Classification of literature CYP2D6 inhibition (CYP2D6 [1]; [9]): active
- IC50 (CYP2D6 [2]): 15.9 µM
